Consider three molecules from patent publication US6967201B1, “Benzofurylpiperazines and benzofurylhomopiperazines: serotonin agonists” (Eli Lilly and Company, priority 1999, dated 2005).

With `C[C@@H]1CN(c2ccc(F)c3ccoc23)CCN1.O=C(O)C(=O)O`, the melting point is 192 °C (dec.). On to `C[C@H]1CN(c2ccc(F)c3ccoc23)CCN1.O=C(O)C(=O)O`, for which the melting point is 191 °C (dec.). As to `CC1(C)CNCCN1c1cc(F)cc2ccoc12.O=C(O)/C=C/C(=O)O`, the melting point lay within 162 to 165 °C.
